Experimental findings from patent publication US20080280996A1, “Use of Carophyllenes in the Manufacture of Medicaments and Treatment of Bodily Conditions of Inflammation and Inflammatory Pain” (priority 2004, published 2008) are described below.

Holding throughout (type): in vivo
The subject of one test is PAF-induced oedema. Briefly: Platelet aggregation factor (PAF) oedema in mouse paw. The following applies: mice, PAF 3 nmol/paw intraplantar; 50 mg/kg orally 1 h before; 30 to 120 min. The protocol:
The test used below is described by Cunha et. al. in the publication Life Sci. 70:159-169, 2001. Male 25 g-35 g mice were slightly sedated with ether and were injected 50 μl saline containing platelet aggregation factor (PAF, 3 nmol/paw), intraplantar, in the right paw. The left paw received the same volume of saline and was taken as negative control. The swelling was measured with a plethysmometer (manufacturer: Ugo Basile, Italy) along various time intervals after the injection of the phlogistic agent. The difference between the volumes of the right and the left paw were quantified (in ml) and taken as an index of oedema. One hour before the test the animals were systemically treated (orally) with 50 mg/kg of alpha-humulene or trans-caryophyllene. Graph 5 below compares the inhibition of the volume of the oedema by administration of alpha-humulene (SA) and trans-caryophyllene (5B). Oedema volume measurement time intervals were 30, 45, 60, and 120 min. Each point represents the average of 5 animals, and the vertical bars the mean standard deviation.

For test [1], the system named is arachidonic acid ear oedema. Description: Arachidonic acid oedema in mouse ear. The note with it: mice, arachidonic acid 2 mg/ear; topical ointment 0.025 to 0.2% caryophyllene applied 60 minutes before. On the procedure: The ear oedema in the test below was measured according to Calixto et. al. in the publication Prostaglandins, 5: 515-526, 1991, with minor modifications. Male 25 g-35 g mice, in a first group, were topically applied, in the inner surface of the ears, an ointment comprising a range from 0.025 to 0.2% alpha-humulene or trans-caryophyllene. In the positive control group, the animals were topically applied 0.05 mg of phenidone per ear. After 60 minutes, the animals received 20 μl of arachidonic acid (2 mg/ear), dissolved in acetone, in the inner surface of the right ear. The oedema was measured using a digital micrometer, and the responses were expressed as μm, the difference between the ear thickness before and after the application of arachidonic acid. The responses of the animals treated with caryophyllenes were compared to those observed in the control group animals, treated with base ointment. Graphs 6A and 6B below compare the inhibition of the volume of the oedema by topic administration of alpha-humulene (6A) and trans-caryophyllene (6B). Oedema volume measurement was performed after application of 0.025%, 0.05%, 0.1, and 0.2% caryophyllene content ointment, compared to the oedema volume caused by the application of phenidone and arachidonic acid (C). Each point represents the average of 5 animals, and the vertical bars the mean standard error deviation.

Test [2] deals with bradykinin-induced paw oedema. Description: Bradykinin oedema in mouse paw. The note with it: mice, bradykinin 3 nmol/paw intraplantar, captopril pre-treatment; 50 mg/kg orally 1 h before; 10 min to 48 h. The protocol:
The test used below is described by Cunha et. al. in the publication Life Sci. 70:159-169, 2001. Male 25 g-35 g mice were slightly sedated with ether and were injected 50 μl saline containing bradykinin (BK, 3 nmol/paw), intraplantar, in the right paw. The left paw received the same volume of saline and was taken as negative control. The swelling was measured with a plethysmometer (manufacturer: Ugo Basile, Italy) along various time points intervals after the injection of the phlogistic agent. The difference between the volumes of the right and the left paw were quantified (in ml) and taken as an index of oedema. One hour before the test the animals were systemically treated (orally) with 50 mg/kg of alpha-humulene or with trans-caryophyllene. The animals were pre-treated with 5 mg/kg of captopril, injected subcutaneously, 1 hour before the test, in order to avoid degradation of […]. Graphs 3A and 3B below compare the inhibition of the volume of the oedema by administration of alpha-humulene (3A) or trans-caryophyllene (3B). Oedema volume measurement time intervals were 10, 20, 30, 60, and 120 min, 24 h and 48 h. Each point represents the average of 5 animals, and the vertical bars the mean standard error deviation.

The test system of a further test is PGE2. Description: Levels of PGE2 in carrageenin-injected rat paw exsudate (Elisa). The note with it: 50 mg/kg orally 60 minutes before carrageenin 300 μg/paw, paw exsudate after 180 minutes. The protocol: The test used below is described by Pinheiro et. al. in the publication Inflamm. Res. 51: 603-610, 2002, with minor modifications. Male 160-180 g rats were orally given 50 mg/kg of trans-caryophyllene. Animals treated with 0.9% (0.1 ml/10 g) saline were used as control. Another group of animals was treated with 0.5 mg/kg dexamethasone, subcutaneously, 4 hours before the test, and used as positive control. After 60 minutes, the animals received intraplantar injections of 100 μl of carrageenin (300 μg/paw) and were sacrificed after 180 minutes. The exsudate of the paws was collected by dialysis with the help of two polyethylene canulas, and was utilized for the quantification of PGE2, with an Elisa kit, according to the manufacturer's instructions (R & D Systems®, USA). The tests were performed in duplicate, and repeated three times. The answers are expressed in pg/mg of tissue. Graph 9 below (each result represents the average of 5 animals, and the vertical bars the mean standard error deviation) compares inhibition of the PGE2 level growth induced by carrageenin in the paws of rats, by administration of alpha-humulene and trans-caryophyllene, compared to the effect obtained by treatment with dexomethasone.
In general terms: In the carrageenan paw model, swelling and tenderness develop within hours.

With `C/C1=C\CC/C(C)=C/CC(C)(C)/C=C/C1` [alpha-humulene], the PAF-induced oedema formation result with PAF-induced oedema was “markedly reduced PAF-induced oedema formation”. Moreover, the “arachidonic acid ear oedema formation” value in test [1] is recorded as “markedly reduced oedema formation, in a dose-dependent manner”. For the same compound, in test [2], the bradykinin-induced paw oedema result was “markedly reduced bradykinin-induced paw oedema”. Moreover, in the test on PGE2, the “growth of PGE2 levels induced by carrageenin in the paws of rats” value is recorded as “markedly inhibited the growth of PGE2 levels”.

As to `C=C1CC/C=C(\C)CC[C@@H]2[C@@H]1CC2(C)C` [trans-caryophyllene], in the test with PAF-induced oedema, the PAF-induced oedema formation result is “markedly reduced PAF-induced oedema formation”. Moreover, in test [1], the “arachidonic acid ear oedema formation” value is “markedly reduced oedema formation, in a dose-dependent manner”. Besides, the bradykinin-induced paw oedema result in test [2] was “markedly reduced bradykinin-induced paw oedema”. Besides, the “growth of PGE2 levels induced by carrageenin in the paws of rats” value with PGE2 is listed as “markedly inhibited the growth of PGE2 levels”.
